Laboratory results reported in patent US7396835B2, “Process for the preparation of tubulin inhibitors” (Wyeth, priority 2003, dated 2008).
Where a name gives a salt, the structure may show the parent alone.

Assay: Water uptake and stability of the succinate salt under relative humidity
Format: physicochemical
Details: about 20° C. to about 30° C.
Procedure: To a suspension of NaH (40.9 g, 1.02 mol, 60% in oil) in anhydrous THF (750 mL) is added 3-methylamino-propan-1-ol (115 g, 1.21 mol) at about 20-30° C. dropwise over 30 min. The mixture is stirred for 30 min. Then, a solution of [5-chloro-6-(2,4,6-trifluoro-phenyl)-[1,2,4]triazolo[1,5-a]pyrimidin-7-yl]-((1S)-2,2,2-trifluoro-1-methyl-ethyl)-amine (150 g, 0.379 mol) in THF (150 mL) is added slowly over 15 min. The mixture is heated to 60° C. and stirred for 16 h, then cooled to 0-6° C. Cold water (1500 mL) is added dropwise while maintain the temperature between 10±3° C. THF is removed by distillation. The reaction mixture is extracted with t-butylmethyl ether (TBME, 2×1000 mL) and to the separated aqueous phase is added in portions succinic acid (296 g, 2.51 mol) is added in portions and followed by addition of TBME (1000 mL). The mixture is cooled to 3±3° C. and stirred for 1 h. The crude solid product is filtered, washed with cold water (150 mL) and TBME (2×400 mL). The wet solid is dissolved into water (2000 mL) at about 75° C. The solution is filtered at 60-70° C. and cooled to 0° C. over 1 h and stirred for 1 h at this temperature. The solid is filtered and dried at 35° C./10 mmHg for 20 h to give a white solid in anhydrous form (175 g, 80%, >99% HPLC area purity and 99% ee). […]

**Q.** What does the source list for `CNCCCOc1cc(F)c(-c2c(Cl)nc3ncnn3c2N[C@@H](C)C(F)(F)F)c(F)c1` [Example 4, 5-Chloro-6-{2,6-difluoro-4-[3-(methylamino)propoxy]phenyl}-N-[(1S)-2,2,2-trifluoro-1-methylethyl][1,2,4]triazolo[1,5-a]pyrimidin-7-amine Succinate Salt Dihydrate]?
**A.** stability of the dihydrate (5%-100% relative humidity): stable; water absorbed by the anhydrous compound (anhydrous succinate salt, drying dish of 80%-100% relative humidity, 24 h, uptake then stopped): 5.8 % wt
